Earlier results as cited in patent EP0615447B1, “SLOW-RELEASE FLURBIPROFEN-CONTAINING MEDICAMENT AND ITS USE” (ALFATEC-PHARMA GmbH, priority 1991, dated 1993).

Key:
[1] = in vivo
[2] = water
[3] = aqueous medium; compared with the racemate

Row | Compound | Plasmahalbwertszeit [1] | pKA | Löslichkeit in Wasser [2] | Auflösungsgeschwindigkeit [3]
1 | CC(C(=O)O)c1ccc(-c2ccccc2)c(F)c1 (racemic) [Flurbiprofen, 2-(2-Fluor-4-biphenylyl)propionsäure] | 3,9 h | 4,16 | 32,5 mg/l | 
2 | CC(C(=O)O)c1ccc(-c2ccccc2)c(F)c1 (racemic) [Pseudoracemat] |  |  |  | wesentlich höher
